According to patent publication US11008622B2, “Biomarker for predicting sensitivity to EGFR-targeting agent, and use thereof” (THE ASAN FOUNDATION, priority 2014, dated 2021):

Key:
[1] = test system: FZD4 and GPR101 genes; test: Real-time PCR of EGFR transactivation-related genes after RON inhibition; format: cell-based, human; settings: KM12C, RON siRNA 48 hours; FIG. 1E
Method: In order to perform the RT-PCR, Colo320HSR colon cancer cell line in which the RON was non-expressed was transfected with construct expressing the RONΔ160 as the RON active type form for 48 hours and KM12C colon cancer cell line in which the RON was activated was transfected with the RON siRNA for 48 hours. The RNA was extracted by using trizol (Cat.#15596-026, Life Technologies™), respectively. The extracted RNA was synthesized to cDNA by using a RT-PCR Kit (AccuPower RT PreMix, Bioneer). The difference in expression of the corresponding gene was verified by PCR (AccuPower PCRPreMix, Bioneer) by using the synthesized cDNA and a gene-specific primer and quantified by using a real-time PCR (LightCycler 480 SYBR Green, Roche).
The inventors analyzed the expression of the genes Adam11, Adam32, FZD4, GPER, and GPR101 associated with the EGFR transactivation with real-time PCR after artificially suppressing the RON activity by using an siRNA technique in the KM12C colon cancer cell line in which the RON was activated, in order to analyze the change aspect of the expression of the EGFR transactivation-related genes according to the RON inhibition.

[2] = test system: EGFR; test: EGFR phosphorylation by western blot after RON inhibition by siRNA; format: cell-based, human
Method: In order to perform the western blot, a protein separated from each cell was separated through SDS-PAGE and transferred to polyscreen membranes (New England Nuclear, Boston, Mass., USA), reacted for 12 hours at 4° C. by using various antibodies (anti-phospho RON (MyBioSource, San Diego, Calif., USA), anti-phospho Tyrosine, anti-EGFR, anti-phospho EGFR (Cell signaling Technology, Beverly, Mass., USA), anti-RON, and anti-r-tubulin (Santa Cruz Biotechnology), and then washed with a 1×TBS-T buffer solution for 10 minutes three times. A suitable anti-rabbit-HRP or anti-mouse-HRP secondary antibody reacted for 2 hours at room temperature and was washed with the 1×TB S-T buffer solution for 10 minutes three times to verify the expression of the protein by using an ECL solution (Amersham, Buckinghamshire, UK).
The inventors verified the phosphorylation induction of the EGFR by performing the western blot, after artificially suppressing the RON by using a siRNA technique in the KM12C and HT29 colon cancer cell lines in which the RON was expressed and activated, in order to verify the change in activity of the EGFR protein by the activation of the RON protein. […]

5′-ACUUUGUAGAGGAGUUUGAUU-3′ (listed as RNA, chemistry not given here) [RON siRNA]
FZD4 gene expression [1]: significantly reduced
GPR101 gene expression [1]: significantly reduced
activity of the EGFR (phosphorylation) ([2]; KM12C and HT29 colon cancer cell lines, FIG. 2B): decreased
phosphorylation of the EGFR induced by the EGF ([2]; KM12C, by EGF ligand treating time, FIG. 2C): decreased
